This passage reports EC50 results from US20250221966A1, “RXFP1 AGONISTS” (BRISTOL-MYERS SQUIBB COMPANY, priority 2021, published 2025).

Structures are written as SMILES.

This experiment addresses T1, human RXFP1 (Homo sapiens, UniProt Q9HBX9).
T1 construct: expressed in transfected cells
T1 sequence (Q9HBX9 1-757): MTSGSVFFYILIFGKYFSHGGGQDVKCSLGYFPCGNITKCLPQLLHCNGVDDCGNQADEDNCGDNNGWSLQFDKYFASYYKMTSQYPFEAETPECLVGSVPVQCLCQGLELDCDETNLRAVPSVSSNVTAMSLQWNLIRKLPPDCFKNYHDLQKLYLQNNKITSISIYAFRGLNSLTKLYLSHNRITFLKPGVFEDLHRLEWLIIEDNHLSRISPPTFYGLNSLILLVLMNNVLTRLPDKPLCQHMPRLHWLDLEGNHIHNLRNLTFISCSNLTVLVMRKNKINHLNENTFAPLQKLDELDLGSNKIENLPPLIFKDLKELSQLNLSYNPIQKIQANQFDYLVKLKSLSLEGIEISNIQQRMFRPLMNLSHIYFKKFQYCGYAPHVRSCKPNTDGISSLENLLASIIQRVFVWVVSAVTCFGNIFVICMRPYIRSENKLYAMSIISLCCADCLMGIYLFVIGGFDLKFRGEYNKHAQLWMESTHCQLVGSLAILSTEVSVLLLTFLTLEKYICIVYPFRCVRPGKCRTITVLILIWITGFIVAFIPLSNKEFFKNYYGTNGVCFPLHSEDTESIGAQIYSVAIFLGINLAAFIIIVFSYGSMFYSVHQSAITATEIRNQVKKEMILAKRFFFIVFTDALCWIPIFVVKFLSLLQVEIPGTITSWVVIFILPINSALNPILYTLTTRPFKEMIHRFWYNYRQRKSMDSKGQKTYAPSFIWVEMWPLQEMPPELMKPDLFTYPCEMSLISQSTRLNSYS
The experiment in a line: RXFP1 cAMP assay (hRXFP1 HEK293 cAMP assay, HTRF). It counts as cell-based. The following applies: HEK293 cells stably expressing human RXFP1, 30 min at room temperature, read-out: cAMP hRXFP1 HEK293 Assay EC50. The method in brief: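 Intracellular cAMP was read by HTRF, with potency fitted to a 4-parameter logistic curve. Compound exposure (0.010 nM–50 μM final, 2% DMSO) lasted 30 min at room temperature. Cells were hRXFP1-HEK293 at 1500 per well in IBMX-containing (0.5 mM) HEPES-buffered HBSS.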
Broadly, the EC50 is the concentration that produces a half-maximal response. For the molecule `COc1cc(F)c(F)cc1C(=O)N[C@@H]1C2CCC(/C2=C/C(=O)OC(C)(C)C)[C@@H]1C(=O)Nc1ccc(F)c(C(F)(F)F)c1` (stereo partly shown) [compound 8], the EC50 turned out to be 110 nM. The figure for `COc1ccc(-c2cc(C(OC(=O)NC3CC3)C(F)(F)F)ccc2F)cc1C(=O)N[C@@H]1C2CCC(/C2=C/C2CC2)[C@@H]1C(=O)Nc1ccc(F)c(C(F)(F)F)c1` (stereo partly shown) [compound 208] is 1 nM. On to `COc1ccc(C2=NOC3COCC23)cc1C(=O)N[C@H]1[C@@H](C(=O)NC2CCC(C#N)C2)[C@H]2CC[C@@H]1/C2=C\C1CC1` (stereo partly shown) [Example 664], for which the EC50 is 367 nM. The figure for `COc1ccc(C2=NOC3COCC23)cc1C(=O)N[C@H]1[C@@H](C(=O)NC2CCC(C(F)(F)F)C2)[C@H]2CC[C@@H]1/C2=C\C1CC1` (single isomer, unassigned) [Example 629] is 180 nM. On to `COc1ccc(-c2cc(C3=NOC4CC(CO)CC34)ccc2F)cc1C(=O)N[C@H]1[C@@H](C(=O)Nc2ccc(F)c(C(F)(F)F)c2)[C@H]2CC[C@@H]1/C2=C\C1CCCC1` (stereo partly shown) [compound 949], for which the EC50 was 3.6 nM. The figure for `COCC(=O)NC(C(=O)O)c1ccc(F)c(-c2ccc(OC)c(C(=O)N[C@@H]3C4CCC(/C4=C/C(F)(F)F)[C@@H]3C(=O)Nc3ccc(F)c(C(F)(F)F)c3)c2)c1` (stereo partly shown) [compound 243] is 4 nM; for `COc1ccc(C2=NOC3CC(C(C)O)CC23)cc1C(=O)N[C@H]1[C@@H](C(=O)Nc2ccc(F)c(C(F)(F)F)c2)[C@H]2CC[C@@H]1/C2=C\C1CC1` (stereo partly shown) [compound 845] it is 1.3 nM; for `COc1ccc(C2=NOC3COCC23)cc1C(=O)N[C@H]1[C@@H](C(=O)Nc2ccc(F)c(C(F)(F)F)c2)[C@H]2CC[C@@H]1/C2=C\C1CC1` (stereo partly drawn) [Example 417, (1R,2S,3R,4R,Z)-7-(cyclopropylmethylene)-N-(4-fluoro-3-(trifluoromethyl)phenyl)-3-(2-methoxy-5-(3a,4,6,6a-tetrahydrofuro[3,4-d]isoxazol-3-yl)benzamido)bicyclo[2.2.1]heptane-2-carboxamide] it is 172 nM. In the case of `COc1ccc(C2=NOC3CC(CO)CC23)cc1C(=O)N[C@H]1[C@@H](C(=O)Nc2ccc(F)c(C(F)(F)F)c2)[C@H]2CC[C@@H]1/C2=C\c1cncs1` (stereo partly shown) [compound 803], the EC50 was found to be 3.5 nM. The figure for `COc1ccc(C2=NOC3CC(CO)CC23)cc1C(=O)N[C@H]1[C@@H](C(=O)N[C@H](C)C2(C)CC2)[C@H]2CC[C@@H]1/C2=C\c1csc(C(F)F)n1` (stereo partly shown) [compound 741] is 1.7 nM. For the molecule `COc1ccc(C2=NOC3(CO)CCC23CO)cc1C(=O)N[C@H]1[C@@H](C(=O)Nc2ccc(F)c(C(F)(F)F)c2)[C@H]2CC[C@@H]1/C2=C\C1CC1` (single isomer, unassigned) [compound 623], the EC50 came to 169 nM.

As for `COc1ccc(C2=NOC3CCCCCCC23)cc1C(=O)N[C@H]1[C@@H](C(=O)Nc2ccc(F)c(C(F)(F)F)c2)[C@H]2CC[C@@H]1/C2=C\C1CC1` (stereo partly shown) [compound 537], the EC50 worked out at 26 nM. With `COc1ccc(-n2cc(C(NC(=O)C3CCOCC3)C(=O)O)cn2)cc1C(=O)N[C@@H]1C2CCC(/C2=C/C(F)(F)F)[C@@H]1C(=O)Nc1ccc(F)c(C(F)(F)F)c1` (stereo partly shown) [compound 347], the EC50 was 62 nM. The figure for `COc1ccc(-c2cc(C(OC(=O)N(C)C3CCC3)C(F)(F)F)ccc2F)cc1C(=O)N[C@@H]1C2CCC(/C2=C/C2CC2)[C@@H]1C(=O)Nc1ccc(F)c(C(F)(F)F)c1` (stereo partly shown) [compound 209] is 1 nM; for `COc1ccc(-c2nn[nH]n2)cc1C(=O)N[C@@H]1C2CCC(C2=C(C)C)[C@@H]1C(=O)Nc1ccc(F)c(C(F)(F)F)c1` (stereo partly shown) [Example 144] it is 2100 nM; for `COc1ccc(-c2ccc(N3CCOCC3)nc2)cc1C(=O)N[C@@H]1C2CCC(/C2=C/C2CC2)[C@@H]1C(=O)Nc1ccc(F)c(C(F)(F)F)c1` (stereo partly shown) [compound 250] it is 12 nM. In the case of `COc1cc(F)c(F)cc1C(=O)N[C@@H]1C2CCC(C2Cc2ccccc2)[C@@H]1C(=O)Nc1ccc(F)c(C(F)(F)F)c1` (stereo partly shown) [compound 976], the concentration giving a half-maximal response (EC50) came to 710 nM. Turning to `COc1c(F)cc(-c2cnc3n2CC(O)CC3)cc1C(=O)N[C@H]1[C@@H](C(=O)Nc2ccc(F)c(C(F)(F)F)c2)[C@H]2CC[C@@H]1/C2=C\C1CC1` (stereo partly shown) [compound 751], the half-maximal effective concentration (EC50) was 2.2 nM. The figure for `COc1ccc(Br)cc1C(=O)N[C@@H]1C2CCC(/C2=C/C(F)(F)F)[C@@H]1C(=O)Nc1ccc(F)c(C(F)(F)F)c1` (stereo partly shown) [compound 292] is 1860 nM; for `COc1ccc(C2=NOC(CC(C)(C)O)C2)cc1C(=O)N[C@H]1[C@@H](C(=O)NCC(C)(C)C)[C@H]2CC[C@@H]1/C2=C\C1CC1` (stereo partly shown) [compound 660] it is 350 nM; for `COc1ccc(C2=NOC3CC(CO)CC23)cc1C(=O)N[C@H]1[C@@H](C(=O)Nc2ccc(F)c(C(F)(F)F)c2)[C@H]2CC[C@@H]1/C2=C\C(C)C` (stereo partly shown) [compound 450] it is 1.6 nM. The figure for `COc1ccc(C2CCCN2C(=O)C(C)(C)O)cc1C(=O)N[C@@H]1C2CCC(C2=CC2CC2)[C@@H]1C(=O)Nc1ccc(F)c(C(F)(F)F)c1` (stereo partly shown) [compound 688] is 675 nM. The figure for `COc1ccc(-c2cc(C(OC(=O)NC34CC(C3)C4)C(F)(F)F)ccc2F)cc1C(=O)N[C@H]1[C@@H](C(=O)Nc2ccc(F)c(C(F)(F)F)c2)[C@H]2CC[C@@H]1/C2=C\C1CC1` (single isomer, unassigned) [Example 206] is 1 nM. On to `COc1ccc(-c2cc(C3OC(=O)N(C)C3=O)ccc2F)cc1C(=O)N[C@@H]1C2CCC(/C2=C/C2CC2)[C@@H]1C(=O)Nc1ccc(F)c(C(F)(F)F)c1` (stereo partly shown) [compound 173], for which the EC50 came to 7 nM. The figure for `COc1ccc(-c2cc(C(=O)NCC(=O)O)ccc2F)cc1C(=O)N[C@@H]1C2CCC(C2=C(C)C)[C@@H]1C(=O)Nc1ccc(F)c(C(F)(F)F)c1` (stereo partly shown) [compound 193] is 300 nM; for `COc1ccc([C@@]2(O)CO[C@@H]3[C@@H](O)CO[C@@H]32)cc1C(=O)N[C@H]1[C@@H](C(=O)Nc2ccc(F)c(C(F)(F)F)c2)[C@H]2CC[C@@H]1/C2=C\C1CC1` [compound 700] it is 1050 nM; for `COc1cc(F)c(F)cc1C(=O)N[C@@H]1C2CCC(/C2=C/c2cncnc2)[C@@H]1C(=O)Nc1ccc(F)c(C(F)(F)F)c1` (stereo partly shown) [compound 63] it is 510 nM.

As for `COc1c(C)cc(C2=NOC3CC(CO)CC23)cc1C(=O)N[C@H]1[C@@H](C(=O)Nc2ccc(F)c(C(F)(F)F)c2)[C@H]2CC[C@@H]1/C2=C\C1CC1` (stereo partly shown) [compound 797], the concentration for a half-maximal effect (EC50) was found to be 4.1 nM. The figure for `COc1cc(F)c(F)cc1C(=O)N[C@@H]1C2CCC(/C2=C/C=C/CCO)[C@@H]1C(=O)Nc1ccc(F)c(C(F)(F)F)c1` (stereo partly shown) [compound 67] is 1700 nM. Turning to `COc1ccc(C2=NO[C@@H]3[C@@H](O)CCN23)cc1C(=O)N[C@H]1[C@@H](C(=O)Nc2ccc(F)c(C(F)(F)F)c2)[C@H]2CC[C@@H]1/C2=C\C1CC1` [compound 857], the EC50 came to 5 nM. As to `COc1ccc(-c2cc(C(CO)NC(C)=O)ccc2F)cc1C(=O)N[C@@H]1C2CCC(/C2=C/C2CC2)[C@@H]1C(=O)Nc1ccc(F)c(C(F)(F)F)c1` (stereo partly shown) [Example 172], the concentration giving a half-maximal response (EC50) came out at 5 nM. Consider `COc1ccc(C2=NOC3COCC23)cc1C(=O)N[C@H]1[C@@H](C(=O)NCCC(C)(C)C)[C@H]2CC[C@@H]1/C2=C\C1CC1` (stereo partly shown) [compound 612], for which the EC50 was found to be 134 nM. The figure for `O=C(NC1CCC1)OC(c1ccc(F)c(-c2ccc(OCCO)c(C(=O)N[C@H]3[C@@H](C(=O)Nc4ccc(F)c(C(F)(F)F)c4)[C@H]4CC[C@@H]3/C4=C\C3CC3)c2)c1)C(F)(F)F` (stereo partly drawn) [Example 253, 1-(3′-(((1R,2R,3S,4R,Z)-7-(cyclopropylmethylene)-3-((4-fluoro-3-(trifluoromethyl)phenyl)carbamoyl)bicyclo[2.2.1]heptan-2-yl)carbamoyl)-6-fluoro-4′-(2-hydroxyethoxy)-[1,1′-biphenyl]-3-yl)-2,2,2-trifluoroethyl cyclobutylcarbamate] is 17 nM; for `COc1ccc(C2=NO[C@H]3C[C@H](CO)CN23)cc1C(=O)N[C@H]1[C@@H](C(=O)Nc2ccc(F)c(C(F)(F)F)c2)[C@H]2CC[C@@H]1/C2=C\C1CCCC1` [compound 816] it is 1.6 nM; for `CCOC(=O)c1c(-c2ccc(F)cc2)[nH]c2ccc(-c3ccc(OC)c(C(=O)N[C@@H]4C5CCC(/C5=C/C(F)(F)F)[C@@H]4C(=O)Nc4ccc(F)c(C(F)(F)F)c4)c3)cc12` (stereo partly shown) [compound 298] it is 70 nM.

For `COc1ccc(N2CC[C@H](O)C2=O)cc1C(=O)N[C@H]1[C@@H](C(=O)Nc2ccc(F)c(C(F)(F)F)c2)[C@H]2CC[C@@H]1/C2=C\C1CC1` [compound 627], the EC50 is 176 nM. With `COc1ccc(-c2cc(C3=NOC4CC(CO)CC34)ccc2F)cc1C(=O)N[C@H]1[C@@H](C(=O)Nc2ccc(F)c(C(F)(F)F)c2)[C@H]2CC[C@@H]1/C2=C\C1CCCC1` (stereo partly shown) [compound 950], the EC50 is 4.9 nM.
